One data set deals with RAW 264.7 cells. As to the kind of experiment: Lactate dehydrogenase (LDH) cytotoxicity assay. The data set is classed as cell-based, murine. The following applies: for toxicity (LDH release), in words: RAW 264.7 cells, cell viability by LDH release. As to the method:
(§1) LDH assay was used to evaluate the toxicity of the studied samples towards macrophage cultures. The release of LDH (cytoplasmic enzyme lactate dehydrogenase) from RAW 264.7 cells treated with samples was determined using 50 µL of cell culture supernatant collected 24 h after the treatment, as described in the previous section. The LDH release, which represents an indirect indication of cytotoxicity, was determined colorimetrically using a commercial kit (Doles Reagentes e Equipamentos para Laboratorios Ltda., Goiânia, Brazil). The specific release was calculated as a percentage of the controls: non-treated macrophages as the negative control (O.D. 0.249, cytotoxicity 1.99% ± 0.62%) and 1% Triton X-100 (Vetec Chem., Duque de Caxias, Brazil) detergent treated macrophages as the positive control (O.D. 1.278, cytotoxicity 99.95% ± 2.26%). Final concentrations of DMSO, used as the carrier solvent for the samples, were tested in parallel as a control. Cytotoxicity was shown as percentage of controls. Tests were performed in triplicate and the mean value and standard deviation were calculated.

For data set [1], the system named is NO production by LPS-activated RAW 264.7 macrophages. Description: NO production by LPS-stimulated RAW 264.7 macrophages (Griess test). The following applies: Mus musculus, RAW264.7; for IC50: LPS-stimulated RAW 264.7 macrophages, 24 h incubation. The data set is classed as cell-based, murine. The protocol:
(§2) The murine peritoneal macrophage cell line RAW 264.7 was obtained from the American Type Culture Collection (ATCC, Rockville, MD, USA) and grown at 37 °C and 5% CO2 in DMEM F-12 that was supplemented with 10% FCS and gentamicin (50 µg/mL). RAW 264.7 cells (1 × 10^5 cells/well) were seeded in flat bottom 96-well tissue culture plates (Corning Inc., Corning, NY, USA) in the presence or absence of various concentrations of the samples (100, 20 and 4 µg/mL) and/or LPS (Escherichia coli 055:B5; Sigma-Aldrich). After a 24 h incubation period, culture supernatants were collected for NO and TNF-α assays. Nitrite, a stable NO metabolite, was determined by using the Griess test. As a positive control of inhibitory activity, intact, untreated macrophages were used. As a negative control, macrophages stimulated with 1 µg/mL LPS were used. […] TNF-α was measured by an L929 fibroblast bioassay. This assay system uses murine L929 cells sensitive to TNF-α. For this, murine fibroblast cell line L929 cells (ATCC) (2 × 10^5 cells/well) were seeded in flat bottom 96-well tissue culture plates (Corning Inc.) 24 h before of being inoculated with macrophage culture supernatant and actinomycin D (2 µg/mL) added. After 24 h of incubation with macrophage culture supernatant, L929 viability was assayed by MTT [3-(4,5-dimethylthiazol-2-yl)-2,5diphenyltetrazolium bromide] method. The cytokine levels were calculated by using a purified recombinant mouse cytokine to obtain a standard curve that correlates cellular viability and TNF-α concentration.

The test system of data set [2] is TNF-α production by LPS-activated RAW 264.7 macrophages. As to the kind of experiment: TNF-α production by LPS-stimulated RAW 264.7 macrophages (L929 fibroblast bioassay). It is filed as cell-based, murine. The following applies: Mus musculus, RAW264.7, 24 h incubation. As to the method: as §2
Data set [3] can be described thus: Lactate dehydrogenase (LDH) cytotoxicity assay. It is filed as cell-based, murine. The note with it: mouse, RAW 264.7 macrophage cells; LDH release from RAW 264.7 cells, 24 h after treatment. As to the method: as §1
On the technique in general: LDH in the medium is a marker of cell lysis.

Data set [4] concerns Mycobacterium bovis BCG strain Moreau. As to the kind of experiment: microbe, parasite or virus in culture. The following applies: Mycobacterium tuberculosis variant bovis BCG, 168 h, read-out: IC50 M. bovis BCG. The data set is classed as cell-based.

Regarding Triton X-100 [reference compound], the “cytotoxicity (specific LDH release, percentage of controls)” value in the data set with RAW 264.7 cells (1% detergent, positive control, RAW 264.7 macrophages) is reported as 99.95% ± 2.26.
The term IC50 denotes the concentration needed to halve the response being measured. As to `CC1CCC23C1CCC2(C)CC(C)C3(C)O` (stereo not drawn) [Compound 5, (1S*,2S*,3S*,5S*,8S*,9S*)-2,3,5,9-tetramethyltricyclo[6.3.0.01.5]undecan-2-ol], the values for the IC50 in data set [1], in data set [2] and in data set [4] were 74.6 ± 5.8 µM, 393.4 ± 0.4 µM and 205 ± 7.6 µM, respectively. The “toxicity (LDH release), in words” value in the data set on RAW 264.7 cells is recorded as “no toxicity whatsoever”. Moreover, half-maximal inhibition in data set [3] (IC50 at 24 h) was put at 416 ± 4.9 µM.
Taken in the same sequence, the figures for `C=C1C[C@@H](O)CC(C)(C)[C@]12CCC(C)=C(Cl)C2` [Compound 3, Debromoelatol] were 69.1 ± 4.7 µM, 134 ± 7.4 µM, 82.4 ± 4.7 µM, “no toxicity whatsoever” and > 392 µM.
What is called inhibition is the drop in the measured response relative to a control, in per cent. Higher therefore signals strong suppression. In data set [1], `[H]/N=C(/NC)NCCC[C@H](N)C(=O)O` [L-NMMA, L-N-monomethyl-arginine, reference compound] displayed an IC50 of 71.3 ± 4.4 µM. In data set [1] (positive control at 20 µg/mL), this compound gave an inhibition at 20 µg/mL of 59.2%.
With `C=C1CC[C@@H](Br)C(C)(C)[C@]12CC[C@](C)(Br)[C@@H](Cl)C2` [Compound 4, obtusane], the IC50 in data set [1] is 44.9 ± 3 µM; in data set [2], > 251 µM; in data set [4], 44.7 ± 4 µM. In addition, the “toxicity (LDH release), in words” value in the data set with RAW 264.7 cells is listed as “only moderately toxic”. This compound also showed an IC50 at 24 h in data set [3] of 197.2 ± 1 µM.
Taken in the same sequence, the figures for `C=C1CC(O)C(Br)C(C)(C)C12CCC(C)(O)C(Cl)C2` (centres unmarked) [Compound 2] were > 284 µM, > 284 µM, 80.2 ± 4.3 µM, “no toxicity whatsoever” and > 284 µM.

The record behind these values is PMC6271906, “Sesquiterpenes from the Brazilian Red Alga Laurencia dendroidea J. Agardh” (Molecules, 2014).
